Tests used:
[1] = Cu(II) complex formation equilibria, spectrophotometric titration at pH 2.5; assay type: physicochemical; conditions: conditional formation constant, aqueous solution, pH = 2.5, T = 298.2 K
Text: The copper(II) complexation equilibria of bis-TCH were studied by means of spectrophotometric titration of the ligand with Cu(II) in aqueous solution at pH = 2.5 and pH = 7.4. […] For this reason, in the speciation models, L identifies the ligand irrespective of its protonation state, and the charges of the complexes are omitted. […] The two bands at 237 and 318 nm, observed in the spectrum of the free ligand, decrease in absorbance upon addition of Cu(II), while the two bands at 259 and 400 nm increase.
A plot of absorbance at 280 nm vs. Cu(II)/ligand molar ratio (Figure 3, inset) quite clearly evidenced that two equivalence points are present: one at ca. 0.75 eq. and one at ca. 1.5 eq. of metal added, corresponding to the formation of [Cu3L4] and [Cu3L2] species. […] The [Cu3L4] species could have a simple structural explanation considering some peculiar characters of bis-TCH. This ligand, in fact, adds to the coordinating possibilities of the central skeleton (ONSNO) two sulfonic groups, which are deprotonated, such that they can also behave as counteranions. Moreover, both the ligands have a great affinity for Cu(II) ions, but bis-TCH is more acidic than bis-CH, and this implies that it more stably coordinates Cu(II) already at pH 2.5. It will be seen further in the discussion that in the case of bis-CH at pH = 2.5, the [CuL] species is identified, while, at the same pH, bis-TCH is able to compete more efficiently for the Cu(II) ions in solution, and the result is [Cu3L4], a species with a higher ligand/metal ratio (Figure S19).
The copper(II) complexation equilibria of bis-CH were studied by means of spectrophotometric titration at pH = 2.5 and 7.4. […] The best fit of the spectrophotometric data was obtained by considering the formation of [CuL] and [Cu2L] species, with log β values of 6.26(2) and 11.30(2), respectively (Table 2).
Samples used for the study of protonation equilibria of the ligands were prepared as follows. […] For each solution, the absorption spectrum was collected in the 220–600 nm range at 298.2 K. The spectral data collection was carried out immediately after the preparation of the samples and repeated after 3 and 10 min for all the samples at different pH values to check the stability of the ligand. […]
The logarithms of the apparent stability constants were calculated from the spectral dataset using HypSpec2014 software. […] All equilibria were studied at fixed pH, and therefore the determined log β values are logarithms of conditional formation constants. […] Speciation diagrams were calculated using the Hyss2009 software. […]

[2] = tested on: Hs27 cells; test: Antiproliferative activity, trypan blue cell count, Hs27; assay type: cell-based; conditions: Hs27, up to 100 µg/mL, 24-72 h
Description: We have started to investigate the antiproliferative profile of the ligands and of the complexes C1–C4 using a normal fibroblast cell line (Hs27) and a leukaemia cell line (U937), an in vitro cell model system systematically used to validate the toxicological profile of new potential anticancer agents. For the cytotoxicity assay, we treated Hs27 and U937 cells with five different concentrations of compound, ranging from 12.5 to 100 µg/mL, for 24, 48, and 72 h.
U937 cells (ATCC, CRL-1593.2) were obtained from the American Tissue Culture Collection (Rockville, MD, USA) and were cultured in Roswell Park Memorial Institute Medium (RPMI-1640) (Euroclone, Italy); Hs27 cells (ATCC, CRL1634) were grown in DMEM. Both media were supplemented with 10% (v/v) foetal bovine serum (Euroclone, Italy), 1% L-glutamine (2 mM) (Euroclone, Italy), and 1% penicillin (100 U/mL)/streptomycin (100 µg/mL) (Euroclone, Italy), added with 10% (v/v) foetal bovine serum (Euroclone, Italy), 1% L-glutamine (2 mM) (Euroclone, Italy), and 1% penicillin (100 U/mL)/streptomycin (100 µg/mL) (Euroclone, Italy). Flasks were maintained at 37 °C and 5% CO2 in a humidified atmosphere. […]
The antiproliferative activity of the ligands and the complexes C1–C4 was evaluated in vitro on U937 and Hs27 cell lines. […] Values are reported as the mean of the GI50 calculated on two independent experiments.

[3] = Solubility of the ligands and complexes in water; assay type: physicochemical; conditions: for solubility: r.t.
Text: Elemental (see experimental section) and TGA (Figure S5) analyses confirmed the formulae Na2H4L^1∙5.5H2O (bis-TCH) and Na2H4L^2∙5H2O (bis-CH).

Row | SMILES | Log β([Cu2L]) [1] | Log β([CuL]) [1] | cytotoxic effect (in words) [2] | solubility in water (in words) [3] | solubility [3] [mg/mL] | Log β([Cu3L2]) [1] | Log β([Cu3L4]) [1]
1 | COc1cc(S(=O)(=O)[O-])cc(/C=N/NC(=O)N/N=C/c2cc(S(=O)(=O)[O-])cc(OC)c2O)c1O.[Na+].[Na+] [bis-CH, Bis-(sodium 3-methoxy-5-sulfonate-salicylaldehyde)-carbohydrazone] | 11.30(2) | 6.26(2) | did not produce a reduction in cell viability | very soluble in water | ~23 |  | 
2 | COc1cc(S(=O)(=O)[O-])cc(/C=N/NC(=S)N/N=C/c2cc(S(=O)(=O)[O-])cc(OC)c2O)c1O.[Na+].[Na+] [bis-TCH, Bis-(sodium 3-methoxy-5-sulfonate-salicylaldehyde)-thiocarbohydrazone] |  |  |  | very soluble in water | ~10 | 26.4(1) | 38.6(1)

Source: paper PMC11476552, “Synthesis and Preliminary Studies for In Vitro Biological Activity of Two New Water-Soluble Bis(thio)carbohydrazones and Their Copper(II) and Zinc(II) Complexes” (International Journal of Molecular Sciences, 2024)
